Laboratory results from EP4707280A1, “1,4-CINEOLE DERIVATIVE AND INTERMEDIATE THEREOF, HERBICIDE CONTAINING SAID DERIVATIVE AS ACTIVE INGREDIENT, METHOD FOR USING HERBICIDE, AND METHOD FOR PREPARING AGROCHEMICAL COMPOSITION” (HOKKO CHEMICAL INDUSTRY CO., LTD., priority 2023, dated 2024).

Experiments:
Assay type in all cases: in vivo
[1] = system: Echinochloa crus-galli var. formosensis; assay: Test Example 6: herbicidal effect test by application during growth period of paddy rice (low dose); conditions: 7.5 g per 10 ares, applied seven days after sowing, flooded pots, 14 days after application; for inhibition at 75 g/ha: Echinochloa crus-galli, read-out: weed inhibition rate
Procedure, shortened: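 Low-dose water application, 7.5 g a.i. per 10 ares, given by dropper into flooded pots (about 3 cm depth) 7 days after sowing of 30 weed seeds each at 0–1 cm. Evaluation of inhibition (%) took place 14 days later, duplicate per rate.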

Scirpus juncoides [2] = assay: Test Example 2: herbicidal effect test by application during growth period of paddy rice; conditions: 120 g per 10 ares, applied seven days after sowing, flooded pots, 14 days after application; for inhibition at 1200 g/ha: Schoenoplectiella juncoides, read-out: weed inhibition rate
Procedure, shortened: (§1)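 Greenhouse pots of flooded paddy soil, seeded shallowly with 30 seeds per weed, are treated on day 7 by dropper with diluted emulsifiable concentrate equal to 120 g a.i./10 a. Duplicate pots are scored for inhibition rate 14 days post-application.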

[3] = system: Echinochloa crus-galli var. formosensis; assay: as above; conditions: 120 g per 10 ares, applied seven days after sowing, flooded pots, 14 days after application; for inhibition at 1200 g/ha: Echinochloa crus-galli, read-out: weed inhibition rate
Procedure, shortened: as §1

Digitaria ciliaris [4] = assay: Test Example 4: herbicidal effect test by stem and leaf treatment in upland field; conditions: 120 g per 10 ares, sprayed seven days after sowing, upland soil, 14 days after application; for inhibition at 1200 g/ha: Digitaria ciliaris, read-out: weed inhibition rate
Scirpus juncoides [5] = assay: Test Example 1: herbicidal effect test by soil application in paddy rice; conditions: 120 g active ingredient per 10 ares, applied immediately after sowing, flooded pots, 14 days after application; for pest or weed control at 1200 g/ha: Schoenoplectiella juncoides, soil, 336 h, read-out: weed inhibition rate
Procedure, shortened: (§2)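 Weeds sown 0–1 cm deep (30 seeds each) into fertilized, puddled paddy soil in Wagner pots. Pots are flooded immediately, water held near 3 cm, and the diluted emulsifiable concentrate is dripped in at once, delivering 120 g active ingredient per 10 ares under glass-greenhouse management.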

[6] = system: Echinochloa crus-galli var. formosensis; assay: as above; conditions: 120 g active ingredient per 10 ares, applied immediately after sowing, flooded pots, 14 days after application; for pest or weed control at 1200 g/ha: Echinochloa crus-galli, soil, 336 h, read-out: weed inhibition rate
Procedure, shortened: as §2

Echinochloa crus-galli [7] = assay: Test Example 8: herbicidal effect test by stem and leaf treatment in upland field (low dose); conditions: 7.5 g per 10 ares, sprayed seven days after sowing, upland soil, 14 days after application; for inhibition at 75 g/ha: Echinochloa crus-galli, read-out: weed inhibition rate
Digitaria ciliaris [8] = assay: as above; conditions: 7.5 g per 10 ares, sprayed seven days after sowing, upland soil, 14 days after application; for inhibition at 75 g/ha: Digitaria ciliaris, read-out: weed inhibition rate
Echinochloa crus-galli [9] = assay: Test Example 7: herbicidal effect test by soil application in upland field (low dose); conditions: 7.5 g per 10 ares, sprayed one day after sowing, 14 days after application; for inhibition at 75 g/ha: Echinochloa crus-galli, read-out: weed inhibition rate
Procedure, shortened: (§3)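 Duplicate pots of alluvial loam, seeds incorporated in the surface 1 cm. Soil surface sprayed 1 d after sowing (EC in water, 100 L/10 a; 7.5 g a.i./10 a). Endpoint: % inhibition, day 14.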

Digitaria ciliaris [10] = assay: as above; conditions: 7.5 g per 10 ares, sprayed one day after sowing, 14 days after application; for inhibition at 75 g/ha: Digitaria ciliaris, read-out: weed inhibition rate
Procedure, shortened: as §3

Echinochloa crus-galli [11] = assay: Test Example 3: herbicidal effect test by soil application in upland field; conditions: 120 g per 10 ares, sprayed one day after sowing, 14 days after application; for inhibition at 1200 g/ha: Echinochloa crus-galli, read-out: weed inhibition rate
Procedure, shortened: (§4)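 Pre-emergence test: seeds mixed into top 1 cm of alluvial loam upland soil in pots; emulsifiable concentrate diluted in water sprayed on soil one day after sowing at 100 L/10 a, 120 g a.i./10 a. Weed inhibition rate (%) scored at 14 days, in duplicate.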

Digitaria ciliaris [12] = assay: as above; conditions: 120 g per 10 ares, sprayed one day after sowing, 14 days after application; for inhibition at 1200 g/ha: Digitaria ciliaris, read-out: weed inhibition rate
Procedure, shortened: as §4

[13] = system: Echinochloa crus-galli var. formosensis; assay: Test Example 5: herbicidal effect test by soil application in paddy rice (low dose); conditions: 7.5 g per 10 ares, applied immediately after sowing, flooded pots, 14 days after application; for inhibition at 75 g/ha: Echinochloa crus-galli, soil, 336 h, read-out: weed inhibition rate
Procedure, shortened: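 7.5 g a.i./10 a applied by dropper into ~3 cm floodwater immediately post-sowing (seeds 0–1 cm, 30 per species; puddled fertilized paddy soil, glasshouse). Duplicates; day-14 inhibition %.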

Echinochloa crus-galli [14] = assay: Test Example 4: herbicidal effect test by stem and leaf treatment in upland field; conditions: 120 g per 10 ares, sprayed seven days after sowing, upland soil, 14 days after application; for inhibition at 1200 g/ha: Echinochloa crus-galli, read-out: weed inhibition rate

COc1ccccc1CO[C@@H]1C[C@]2(C(C)C)O[C@@]1(C)C[C@@H]2I [1-747, (1R,2S,4S,5R)-2-iodo-1-isopropyl-5-[(2-methoxyphenyl)methoxy]-4-methyl-7-oxabicyclo[2.2.1]heptane]
≥ 80%: inhibition at 75 g/ha [1] | inhibition at 1200 g/ha (Scirpus juncoides [2]) | inhibition at 1200 g/ha [3] | inhibition at 1200 g/ha (Digitaria ciliaris [4]) | pest or weed control at 1200 g/ha (Scirpus juncoides [5]) | pest or weed control at 1200 g/ha [6] | inhibition at 75 g/ha (Echinochloa crus-galli [7]) | inhibition at 75 g/ha (Digitaria ciliaris [8]) | inhibition at 75 g/ha (Echinochloa crus-galli [9]) | inhibition at 75 g/ha (Digitaria ciliaris [10]) | inhibition at 1200 g/ha (Echinochloa crus-galli [11]) | inhibition at 1200 g/ha (Digitaria ciliaris [12]) | inhibition at 75 g/ha [13] | inhibition at 1200 g/ha (Echinochloa crus-galli [14])

CC(C)[C@]12C[C@@H](OCc3ccccc3Cl)[C@](C)(C[C@@H]1I)O2 [1-756, (1R,2S,4S,5R)-5-[(2-chlorophenyl)methoxy]-2-iodo-1-isopropyl-4-methyl-7-oxabicyclo[2.2.1]heptane]
≥ 80%: inhibition at 75 g/ha [1] | inhibition at 1200 g/ha (Scirpus juncoides [2]) | inhibition at 1200 g/ha [3] | inhibition at 1200 g/ha (Digitaria ciliaris [4]) | pest or weed control at 1200 g/ha (Scirpus juncoides [5]) | pest or weed control at 1200 g/ha [6] | inhibition at 75 g/ha (Echinochloa crus-galli [7]) | inhibition at 75 g/ha (Digitaria ciliaris [8]) | inhibition at 75 g/ha (Echinochloa crus-galli [9]) | inhibition at 75 g/ha (Digitaria ciliaris [10]) | inhibition at 1200 g/ha (Echinochloa crus-galli [11]) | inhibition at 1200 g/ha (Digitaria ciliaris [12]) | inhibition at 75 g/ha [13] | inhibition at 1200 g/ha (Echinochloa crus-galli [14])

CC(C)[C@]12C[C@@H](OCc3ccccc3Br)[C@](C)(C[C@@H]1I)O2 [1-759, (1R,2S,4S,5R)-5-[(2-bromophenyl)methoxy]-2-iodo-1-isopropyl-4-methyl-7-oxabicyclo[2.2.1]heptane]
≥ 80%: inhibition at 75 g/ha [1] | inhibition at 1200 g/ha (Scirpus juncoides [2]) | inhibition at 1200 g/ha [3] | inhibition at 1200 g/ha (Digitaria ciliaris [4]) | pest or weed control at 1200 g/ha (Scirpus juncoides [5]) | pest or weed control at 1200 g/ha [6] | inhibition at 75 g/ha (Echinochloa crus-galli [7]) | inhibition at 75 g/ha (Digitaria ciliaris [8]) | inhibition at 75 g/ha (Echinochloa crus-galli [9]) | inhibition at 75 g/ha (Digitaria ciliaris [10]) | inhibition at 1200 g/ha (Echinochloa crus-galli [11]) | inhibition at 1200 g/ha (Digitaria ciliaris [12]) | inhibition at 75 g/ha [13] | inhibition at 1200 g/ha (Echinochloa crus-galli [14])

CC(C)[C@]12C[C@@H](OCc3ccccc3I)[C@](C)(C[C@@H]1I)O2 [1-762, (1R,2S,4S,5R)-2-iodo-5-[(2-iodophenyl)methoxy]-1-isopropyl-4-methyl-7-oxabicyclo[2.2.1]heptane]
≥ 80%: inhibition at 75 g/ha [1] | inhibition at 1200 g/ha (Scirpus juncoides [2]) | inhibition at 1200 g/ha [3] | inhibition at 1200 g/ha (Digitaria ciliaris [4]) | pest or weed control at 1200 g/ha (Scirpus juncoides [5]) | pest or weed control at 1200 g/ha [6] | inhibition at 75 g/ha (Echinochloa crus-galli [7]) | inhibition at 75 g/ha (Digitaria ciliaris [8]) | inhibition at 75 g/ha (Echinochloa crus-galli [9]) | inhibition at 75 g/ha (Digitaria ciliaris [10]) | inhibition at 1200 g/ha (Echinochloa crus-galli [11]) | inhibition at 1200 g/ha (Digitaria ciliaris [12]) | inhibition at 75 g/ha [13] | inhibition at 1200 g/ha (Echinochloa crus-galli [14])

CC(C)[C@]12C[C@@H](OCc3ccccc3C#N)[C@](C)(C[C@@H]1I)O2 [1-768, 2-[[(l S,2R,4R,5S)-5-iodo-4-isopropyl-l-methyl-7-oxabicyclo[2.2.1]heptan-2-yl]oxymethyl]benzonitrile]
≥ 80%: weed inhibition rate [1] | weed inhibition rate (Scirpus juncoides [2]) | weed inhibition rate [3] | weed inhibition rate (Digitaria ciliaris [4]) | weed inhibition rate (Scirpus juncoides [5]) | weed inhibition rate [6] | weed inhibition rate (Echinochloa crus-galli [7]) | weed inhibition rate (Digitaria ciliaris [8]) | weed inhibition rate (Echinochloa crus-galli [9]) | weed inhibition rate (Digitaria ciliaris [10]) | weed inhibition rate (Echinochloa crus-galli [11]) | weed inhibition rate (Digitaria ciliaris [12]) | weed inhibition rate [13] | weed inhibition rate (Echinochloa crus-galli [14])
